# Reference: patent US20020127228A1, “PGT and apoptosis” (WELFIDE CORPORATION, priority 1998, published 2002)
# Entries after “also recorded” stand apart in the source; their conditions may differ.
# Key:
# [1] = test system: rat cerebral cortical neurons; assay: Apoptosis induced by amyloid beta peptide in rat cerebral cortical neurons, Hoechst 33342; type: cell-based; conditions: for Inhibition of apoptosis induction (%): Experiment 7, test drug added with Aged-Aβ25-35
# Procedure: The cortex region of embryonic day 17 or 18 rat cerebrum was extracted on ice. Cells were dispersed using a neuron dispersal solution (Sumilon) after sectioning. Afterwards, cells were dispersed to a density of 1.5×10^5 cells/cm^2 in a culturing flask that was coated with polyethyleneimine beforehand. After 4 days of culturing, the following experiment was provided. Therefore, as the culture medium, Neurobasal medium (Gibco) adding with B27 supplement (1/50 volume), 2-mercaptoethanol (27.5 μM), L-glutamic acid (25 μM), and glutamine (0.5 mM) was used.
# Amyloid beta peptide 25-35 (Aβ25-35) was dissolved in distilled water to a concentration of 1 mM, incubated for 1 week at about 37° C., and Aged-Aβ25-35 was prepared. The induction of apoptosis in neuron was performed by the replacement of the aforementioned culture medium (with the exception of L-glutamicacid) containing 10 μM Aged-Aβ25-35.
# 4) It was investigated that the suppressing effect of PGE1 on apoptosis induced by amyloid beta peptide. After dissolution of PGE1 in ethanol, when the aforementioned 2) Aged-Aβ25-35 was added to the culture medium, simultaneously PGE1 solution was added to it. The final concentration thereof was 1 μM.
# Cells were washed with PBS (−) at 24 hrs after induction of apoptosis and fixed for 30 mins at room temperature using a 1% glutaraldehyde solution (in PBS). Next, cell were washed with PBS (−) two times and followed by incubation with 1 mM Hoechst 33342 solution (in PBS) for 2 mins. Afterwards, observation of nuclear chromatin morphology was conducted using a fluorescence microscope with 4 arbitrary visual fields. Normal cells and apoptotic cells (cell where chromatin fragmentation or condensation was appeared) were counted, and the ratio was calculated as the incidence of apoptosis. The n was 3.
# 6) The relationship between PGT inhibitors and apoptosis induced by amyloid beta peptide was investigated. BrCG, which is a PGT inhibitor, with a final concentration of 60 μM was added simultaneously with PGE1 but other manners were in accordance with the aforementioned ones in 1)-5).
# It was investigated that the influence of PGT antisense on the inhibitory effect of PGE1 against apoptosis induced by amyloid beta peptide. PGT antisense was used as it is with regard to the oligonucleotide in Experiment 3. The addition concentration thereof was 1.5 μM. Incidence of apoptosis was performed in accordance with Experiment 5. Then was 3.
# 1) Drugs having an inhibitory activity against induction of apoptosis by amyloid beta peptide were investigated. After dissolving test drugs (PGE1, PGK1, PGK2, and bicyclo PGE2) in ethanol, when Aged-Aβ25-35 was added to the culture medium, simultaneously test drug solution were added to it. But other manners were in accordance with Experiment 5. Ratio of normal cells and apoptotic cells allowed calculation of the rate of inhibition of apoptosis induction.
# NRK52E cells = assay: Apoptosis induced by NO donor GSNO in NRK52E kidney cells; type: cell-based, rat; conditions: for Effect on apoptosis in kidney cells (in words): NO donor GSNO
# Procedure: 1) Apoptosis was induced by NO (nitrogen monoxide) in kidney cells. NRK52E cells, which are established from a rat renal tubule epithelial cell line, mainly derived from distal were cultured for 24 hours with a chamber slide that was coated with type-I collagen. Afterwards, the cultured medium was changed to a serum-free medium, and apoptosis was induced by addition of NOC12 (0.4 mM) or S-nitroso L-glutathione (GSNO: 1 mM), which are NO donors.
# 4) Inhibitory effect of PGE1 to the induction of apoptosis in kidney cells was investigated PGE1 was added simultaneously with the addition of a NO donor to a final concentration of 1 or 10 μM. After 24 hrs, cells were fixed with a 1% glutaraldehyde solution and stained with Hoechst 33342. Three visual fields were selected arbitrarily per slide, and the ratio of the cells count where nuclear fragmentation and condensation appeared was calculated with respect to the total cells in the field (magnification: 400x). The n was 5.
# 5) The relationship between PGT inhibitors and kidney cell apoptosis induced by GSNO was examined. With a final concentration of BrCG, which is a PGT inhibitor, of 60 μM, manners other than simultaneous addition with GSNO and PGE1 were in accordance with the aforementioned ones in 4). The PGE1 final concentration was 1 μM. The n was 3.
# 1) Drugs having suppressing activity on apoptosis inducted in kidney cells by an NO donor were investigated. PGK1 and bicyclo PGE2 were used as test drugs, but other manners were in accordance with Experiment 8. The final concentration of the test drugs was 1 μM. The n was 5.
# 2) It was investigated the effects of a PGT inhibitor on the apoptosis-suppressing activity of PGK1 and bicyclo PGE2 in kidney cells. With a final concentration of BrCG, which is a PGT inhibitor, of 60 μM, manners other than simultaneous addition of GSNO and test drugs were in accordance with the aforementioned methods in 1). The n was 4.
# [2] = Hypotensive effect in anesthetized normal rats, mean blood pressure; type: in vivo, rat; design: Decrease in blood pressure: unit not given here; conditions: for Decrease in blood pressure: 100 μg/kg body weight into caudal artery, mean blood pressure before and after, n 3; for Hypotensive effect (in words): dose that suppresses apoptosis sufficiently
# Procedure: 2) The hypotensive effect of the test drugs was examined. After anesthetizing normal rats (male, body weight of about 300 g) with intraperitoneal administration of Nembutal, the dorsal region was fixed. Next, a cannula was inserted in the carotid artery and blood pressure was measured through a transducer (Nihon Kohden Corporation); simultaneous recording was made in combination with a polygraph (Nihon Kohden Corporation). After dissolving the test drugs in ethanol, and diluted (x200) with saline. Administration was given in the caudal artery in a dose of 100 μg/kg body weight. The mean blood pressure (MBP) was measured. The decrease in blood pressure was calculated from the measured values before and after administration. The n was 3 per group.
# PGT = biological target: T1, PGT (Rattus norvegicus, UniProt Q00910); assay: Uptake of tritium-labelled PGE1 into differentiated PC12 cells through PGT; type: cell-based
# T1 construct: endogenous in cells; host or cells: differentiated PC12 cells
# Procedure: 1) Differentiated PC12 cells and tritium-labelled PGE1 (added concentration: 0.1 μM) were subjected to 10 mins of incubation at 37° C. Afterwards, the cells were washed with ice-cold phosphate buffered saline containing 5 g/l of bovine serum albumin and next washed with ice-cold phosphate buffered saline. Then, radioactivity was measured. The amount of PGE1 uptake into PC12 cells was calculated.
# 2) Bromcresol green (hereinafter noted as “BrCG”), which is a PGT inhibitor, was placed together in the culture medium at the addition of PGE1. Afterwards, treatment was conducted in the same manner as mentioned in 1).
# 3) The antisense oligonucleotide specific to PGT cDNA was designed as follows:
# Moreover, said antisense was thioate modified. Using Lipofectin (Gibco), PC12 underwent transfection during 2 days prior to the addition of PGE1. Afterwards, treatment was conducted in the same manner as mentioned in 1).
# SAPK/JNK = SAPK/JNK activation in PC12 cells after NGF withdrawal, Western blot; type: cell-based, rat; conditions: added with PGE1
# Procedure: 4) Intercellular signals via SAPK/JNK Stress-activated protein kinase/Jun N-terminal kinase (abbreviated SAPK/JNK) is associated with apoptosis induction. Thus, intercellular signals within cells via SAPK/JNK were investigated based upon effects with respect to variations in SAPK/JNK activity.
# The present experiment was performed with Western blot analysis. Individual additives were added to cell culturing medium for PC12 cells in accordance with the aforementioned experiment. Culturing was performed for 1-4 hrs after withdrawal of NGF. PC12 cells were lysed with a buffer solution, centrifuged, and the supernatant of cell lysate was prepared. After said supernatant was incubated with JNK 1 polyclonal antibodies (Santa Cruz Biotechnology) at 4° C. for 1 hr. Protein A sepharose was added to it. The resultant was incubated for 1 hr and the immunoprecipitate as described below was provided. […] of cell lysate was conducted with SDS-PAGE electrophoresis, and transferred to a nylon membrane (Amersham Pharmacia Biotech). Blotting of phosphorylated (active) JNK antibodies (Santa Cruz Biotechnology) was performed with this membrane, and bands were detected in accordance with the instruction manual. Intercellular signals within cells were amplified by chemiluminescence and auto radioactivity methods (FCL, Amersham Pharmacia Biotech).
# [3] = test system: differentiated PC12 cells; assay: Induction of apoptosis by PGT antisense in differentiated PC12 cells, TUNEL staining; type: cell-based, rat
# Procedure: 1) Rat adrenal pheochromocytoma PC12 cells (obtained by: ATCC; importer: Dainippon Pharmaceutical) was cultured in a Neurobasal culture medium containing mouse β NGF (100 ng/ml), N2 supplement (1%), and TIP (5 μg/ml transferrin, 5 μg/ml insulin, and 10 ng/ml progesterone). Differentiation of neuron was performed.
# 2) Then, antisense solution prepared in Example 6 is added (final concentration: 600 nM) and cultured for 2 days. As a negative control, Lipofectin in alone is added in the same manner and cultured for the same period of time. Apoptosis detection is performed by TUNEL staining after cell fixation (room temperature for 30 min) with a 10% neutral formalin buffer solution. Observation was made from 6 arbitrary visual fields using a light microscope. Total cells and TUNEL (apoptosis)—positive cells were counted, and the incidence of apoptosis was calculated.
# [4] = Table 13, GSNO, test drug 1 μM, n 5
# [5] = Tables 14 and 15, GSNO, test drug alone, n 4
Amount of PGE1 uptake (PGT; PGE1 0.1 μM with BrCG 1 μM) [fmol/mg protein/10 mins],"Amount of PGE1 uptake (PGT; PGE1 0.1 μM with BrCG 1 μM (second row, printed so)) [fmol/mg protein/10 mins]",Molecule,Effect on apoptosis induced by amyloid beta peptide (in words) [1],Inhibition of apoptosis induction (%) [1] [%],Effect on apoptosis in kidney cells (in words) (NRK52E cells),Incidence of apoptosis (%) (NRK52E cells; [4]),Incidence of apoptosis (%) (NRK52E cells; [5]),Decrease in blood pressure [2],Hypotensive effect (in words) [2],Effect on PGE1 inhibition of amyloid beta peptide-induced apoptosis (in words) ([1]; BrCG 60 μM with PGE1),"Effect on apoptosis-suppressing activity of the test drug in kidney cells (in words) (NRK52E cells; BrCG 60 μM, GSNO)",Effect on PGE1 suppression of SAPK/JNK activation (in words) (SAPK/JNK),"Amount of PGE1 uptake (PGT; PGE1 0.1 μM, antisense 0.5 μM transfected 2 days before) [fmol/mg protein/10 mins]","Amount of PGE1 uptake (PGT; PGE1 0.1 μM, antisense 1.5 μM transfected 2 days before) [fmol/mg protein/10 mins]","TUNEL-positive cells (%) ([3]; antisense 600 nM, cultured 2 days)",Induction of apoptosis (in words) ([3]; antisense addition)
,,CCCCC[C@H](O)/C=C/[C@H]1C(=O)CC(=O)[C@@H]1CCCCCCC(=O)O [PGK1],displayed activity to suppress apoptosis of neurons,45.4,suppressed apoptosis induced by GSNO in kidney cells,8 ± 1,8 ± 1,−5,substantially causes no decrease in blood pressure,,,,,,,
60 ± 15,20 ± 8,"Cc1c(C2(c3cc(Br)c(O)c(Br)c3C)OS(=O)(=O)c3ccccc32)cc(Br)c(O)c1Br [BrCG, Bromcresol green]",,,,,,,,inhibited said effect of PGE1,inhibited apoptosis-suppressing activity by PGE1; also recorded: partially inhibited apoptosis-suppressing effect,inhibited PGE1-suppressing effect,,,,
,,CCCCC1C(=O)CC[C@H]2[C@@H]1CC(=O)[C@@H]2C/C=C\CCCC(=O)O (stereo partly shown) [bicyclo PGE2],displayed activity to suppress apoptosis of neurons,40.6,suppressed apoptosis induced by GSNO in kidney cells,6 ± 1,9 ± 2,0,substantially causes no decrease in blood pressure,,,,,,,
,,"PGT antisense: antisense oligonucleotide specific to PGT, 5′-GGCTTGAGCAGGAGCCCCAT-3′, thioate modified, used with Lipofectin (all phosphorothioate, sugars by position and methylation of C not given here)",,,,,,,,,,inhibited PGE1-suppressing effect,56 ± 17,14 ± 14,12.9 ± 1.1,apoptosis have been induced
,,CCCCC[C@H](O)/C=C/[C@H]1C(=O)CC(=O)[C@@H]1C/C=C\CCCC(=O)O [PGK2],displayed activity to suppress apoptosis of neurons,36.2,,,,+2,substantially causes no decrease in blood pressure,,,,,,,
